What was measured:
[1] = Competitive inhibition of recombinant GES-5 expressed in Escherichia coli BL21(DE3) using nitrocefin substrate by spectrophotometry
[2] = Inhibition of Klebsiella pneumoniae KPC2 using cephalothin as reporter substrate incubated for 300 secs by spectrophotometric assay
[3] = Inhibition of bacterial NDM1 using cephalothin as reporter substrate incubated for 300 secs by spectrophotometric assay; design: species or system Bacteria
[4] = Inhibition of Pseudomonas aeruginosa AmpC expressed in Escherichia coli BL21(DE3) using cephalothin as reporter substrate incubated for 300 secs by spectrophotometric assay
[5] = Inhibition of bacterial OXA-24 using cephalothin as reporter substrate incubated for 300 secs by spectrophotometric assay; design: species or system Bacteria

Structure (SMILES): O=C(O)c1cccc2cc(B(O)O)sc12
- Ki [1]: 0.16 µM
- Ki [2]: 4.9 µM
- Ki [3]: 3 µM
- Ki [4]: 0.42 µM
- Ki [5]: 16 µM

Structure (SMILES): CC(C)(C)OC(=O)Nc1cccc2cc(B(O)O)sc12
- Ki [1]: 5.7 µM
- Ki [2]: 1.4 µM
- Ki [3]: 11 µM
- Ki [4]: 1.4 µM
- Ki [5]: 64 µM

Structure (SMILES): O=CN(C=O)Cc1ccc2sc(B(O)O)cc2c1
- Ki [1]: 24 µM
- Ki [4]: 0.04 µM

Structure (SMILES): NCc1ccc2sc(B(O)O)cc2c1
- Ki [1]: 15 µM
- Ki [2]: 4.4 µM
- Ki [3]: 5.5 µM
- Ki [4]: 0.05 µM
- Ki [5]: 96 µM

Structure (SMILES): OB(O)c1cc2cc(CBr)ccc2s1
- Ki [1]: 8.9 µM
- Ki [2]: 2.8 µM
- Ki [3]: 5.9 µM
- Ki [4]: 0.07 µM
- Ki [5]: 67 µM

Structure (SMILES): CC(C)(C)OC(=O)c1cccc2cc(B(O)O)sc12
- Ki [1]: 17 µM
- Ki [2]: 3.2 µM
- Ki [3]: 3.2 µM
- Ki [4]: 1.3 µM
- Ki [5]: 27 µM
